Experimental data reported in patent US7345180B2, “Compound inhibiting dipeptidyl peptidase IV” (Sanwa Kagaku Kenkyusho Co., Ltd., priority 2003, dated 2008).

Biological target: T1, DPP-IV (Homo sapiens, UniProt P27487)
T1 construct: from tissue; host or cells: human plasma (diluted 30-fold)
Test: DPP-IV inhibition, Gly-Pro-MCA substrate, human plasma as enzyme source (Pharmacological Test Example 1)
Assay type: biochemical
Conditions: 30 minutes at room temperature
Protocol: In screening of DPP-IV inhibitor, the following method using glycyl-proline-4-methylcumalyl-7-amide (Gly-Pro-MCA) as substrate was used.
There after, human plasma (20 μl) diluted30-fold with the measurement buffer was added to each well, stirred and reacted at room temperature for 30 minutes in the dark.
Inhibitory activity on DPP-IV=100×(1−(Fs−Fb)/F100−Fb) F100:fluorescence intensity obtained by reaction with plasma. Fb:fluorescence intensity of a blank where the reaction was carried out with the reaction terminating solution added. Fs:fluorescence intensity obtained by adding the test substance.

T1 sequence (P27487 39-766 limits assumed): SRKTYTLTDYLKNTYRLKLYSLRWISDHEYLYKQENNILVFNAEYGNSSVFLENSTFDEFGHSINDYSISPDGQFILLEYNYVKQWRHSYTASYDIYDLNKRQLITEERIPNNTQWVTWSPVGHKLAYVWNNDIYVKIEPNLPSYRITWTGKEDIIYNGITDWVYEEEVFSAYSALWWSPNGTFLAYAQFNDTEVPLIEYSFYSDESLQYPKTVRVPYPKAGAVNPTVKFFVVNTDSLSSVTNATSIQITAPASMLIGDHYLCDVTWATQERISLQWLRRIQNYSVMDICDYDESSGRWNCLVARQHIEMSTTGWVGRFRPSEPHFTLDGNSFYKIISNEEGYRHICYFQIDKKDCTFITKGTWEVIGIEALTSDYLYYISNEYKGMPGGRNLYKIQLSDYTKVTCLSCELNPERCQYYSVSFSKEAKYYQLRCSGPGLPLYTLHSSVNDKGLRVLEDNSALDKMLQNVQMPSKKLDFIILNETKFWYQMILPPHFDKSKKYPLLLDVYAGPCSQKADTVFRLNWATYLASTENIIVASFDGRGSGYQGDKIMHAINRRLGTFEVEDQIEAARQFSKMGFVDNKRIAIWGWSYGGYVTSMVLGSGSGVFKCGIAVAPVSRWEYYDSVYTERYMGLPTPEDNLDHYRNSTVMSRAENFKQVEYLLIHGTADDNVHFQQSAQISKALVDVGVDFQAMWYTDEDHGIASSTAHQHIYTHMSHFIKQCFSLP

| IC50 | Structure (SMILES) |
| --- | --- |
| 26 nM | Cc1nn(C)c2ncc(C(=O)NCCNCC(=O)N3CCC[C@H]3C#N)cc12 [Compound 122] |
| 31 nM | N#C[C@@H]1CCCN1C(=O)CNCCNC(=O)c1cnc2n(c1=O)CCS2 [Compound 126] |
| 87 nM | COc1c(C(=O)NCC(C)(C)NCC(=O)N2CCC[C@H]2C#N)c(C)nc2cc(C)nn12 [Example 4] |
| 85 nM | COc1c(C(=O)NCC(C)(C)NCC(=O)N2CCC[C@H]2C#N)c(C)nc2cc(-c3ccccc3)nn12 [Example 10] |
| 68 nM | Cc1cc2nc(O)c(C(=O)NCC(C)(C)NCC(=O)N3CCC[C@H]3C#N)cn2n1 [Example 11] |
| 24 nM | CC(C)(CNC(=O)c1cnc2cc(CO)nn2c1)NCC(=O)N1CCC[C@H]1C#N [Example 13] |
| 28 nM | CC(C)(CNC(=O)c1c[nH]c2ccccc12)NCC(=O)N1CCC[C@H]1C#N [Example 15] |
| 33 nM | CC(C)(CNC(=O)c1ccc2[nH]ccc2c1)NCC(=O)N1CCC[C@H]1C#N [Example 16] |
| 36 nM | Cn1cc(C(=O)NCC(C)(C)NCC(=O)N2CCC[C@H]2C#N)c2ccccc21 [Example 18] |
| 50 nM | Cn1ccc2c(C(=O)NCC(C)(C)NCC(=O)N3CCC[C@H]3C#N)cccc21 [Example 19] |
| 52 nM | Cn1ccc2cc(C(=O)NCC(C)(C)NCC(=O)N3CCC[C@H]3C#N)ccc21 [Example 20] |
| 28 nM | Cn1ccc2ccc(C(=O)NCC(C)(C)NCC(=O)N3CCC[C@H]3C#N)cc21 [Example 21] |
| 73 nM | Cn1ccc2cccc(C(=O)NCC(C)(C)NCC(=O)N3CCC[C@H]3C#N)c21 [Example 22] |
| 82 nM | COc1cccc2c1cc(C(=O)NCC(C)(C)NCC(=O)N1CCC[C@H]1C#N)n2C [Example 23] |
| 43 nM | COc1ccc2cc(C(=O)NCC(C)(C)NCC(=O)N3CCC[C@H]3C#N)n(C)c2c1 [Example 24] |
| 48 nM | COc1cc(OC)c2cc(C(=O)NCC(C)(C)NCC(=O)N3CCC[C@H]3C#N)n(C)c2c1 [Example 25] |
| 33 nM | COc1ccc2c(c1)c(C(=O)NCC(C)(C)NCC(=O)N1CCC[C@H]1C#N)c(C)n2C [Example 26] |
| 21 nM | COc1ccc2c(c1)c(C(=O)NCC(C)(C)NCC(=O)N1CCC[C@H]1C#N)cn2C [Example 27] |
| 78 nM | COc1cc(C(=O)NCC(C)(C)NCC(=O)N2CCC[C@H]2C#N)cc2ccn(C)c12 [Example 28] |
| 89 nM | CC(C)Cn1cc(C(=O)NCC(C)(C)NCC(=O)N2CCC[C@H]2C#N)c2ccccc21 [Example 30] |

| IC50 | Structure (SMILES) |
| --- | --- |
| 49 nM | CC(C)(C)Cn1ccc2cc(C(=O)NCC(C)(C)NCC(=O)N3CCC[C@H]3C#N)ccc21 [Example 31] |
| 48 nM | CC(C)Cn1ccc2cc(C(=O)NCC(C)(C)NCC(=O)N3CCC[C@H]3C#N)ccc21 [Example 32] |
| 71 nM | CC(C)(CNC(=O)c1cn(COCc2ccccc2)c2ccccc12)NCC(=O)N1CCC[C@H]1C#N [Example 33] |
| 23 nM | COCn1cc(C(=O)NCC(C)(C)NCC(=O)N2CCC[C@H]2C#N)c2ccccc21 [Example 34] |
| 37 nM | CC(=O)OCn1cc(C(=O)NCC(C)(C)NCC(=O)N2CCC[C@H]2C#N)c2ccccc21 [Example 35] |
| 45 nM | CC(C)(CNC(=O)c1ccc2c(ccn2COCc2ccccc2)c1)NCC(=O)N1CCC[C@H]1C#N [Example 36] |
| 17 nM | CC(C)(CNC(=O)c1ccc2c(ccn2CO)c1)NCC(=O)N1CCC[C@H]1C#N [Example 37] |
| 25 nM | COCn1ccc2cc(C(=O)NCC(C)(C)NCC(=O)N3CCC[C@H]3C#N)ccc21 [Example 38] |
| 73 nM | COc1ccc2c(c1)c(C(=O)NCC(C)(C)NCC(=O)N1CCC[C@H]1C#N)cn2CC(C)(C)C [Example 39] |
| 25 nM | CC(C)(C)Cn1cc(C(=O)NCC(C)(C)NCC(=O)N2CCC[C@H]2C#N)c2cc(O)ccc21 [Example 41] |
| 27 nM | CC(C)(CNC(=O)c1cn(COC(=O)C(C)(C)C)c2ccccc12)NCC(=O)N1CCC[C@H]1C#N [Example 42] |
| 16 nM | CC(C)(CNC(=O)c1ccc2c(ccn2CC(=O)OC(C)(C)C)c1)NCC(=O)N1CCC[C@H]1C#N [Example 43] |
| 37 nM | CN1CCc2cc(C(=O)NCC(C)(C)NCC(=O)N3CCC[C@H]3C#N)ccc21 [Example 44] |
| 28 nM | CC(=O)n1cc(C(=O)NCC(C)(C)NCC(=O)N2CCC[C@H]2C#N)c2ccccc21 [Example 45] |
| 19 nM | CC(=O)N1CCc2cc(C(=O)NCC(C)(C)NCC(=O)N3CCC[C@H]3C#N)ccc21 [Example 46] |
| 24 nM | CC(=O)n1ccc2cc(C(=O)NCC(C)(C)NCC(=O)N3CCC[C@H]3C#N)ccc21 [Example 47] |
| 31 nM | CC(C)(CNC(=O)c1ccc2c(ccn2C(=O)c2ccccc2)c1)NCC(=O)N1CCC[C@H]1C#N [Example 48] |
| 20 nM | CC(C)(CNC(=O)c1ccc2c(ccn2C(=O)C(C)(C)C)c1)NCC(=O)N1CCC[C@H]1C#N [Example 49] |
| 20 nM | CC(C)(CNC(=O)c1ccc2c(c1)CCN2C(=O)C(F)(F)F)NCC(=O)N1CCC[C@H]1C#N [Example 50] |
| 26 nM | CC(C)(CNC(=O)c1ccc2ncsc2c1)NCC(=O)N1CCC[C@H]1C#N [Example 51] |

| IC50 | Structure (SMILES) |
| --- | --- |
| 48 nM | COc1cc(C(=O)NCC(C)(C)NCC(=O)N2CCC[C@H]2C#N)cc2sc(C(F)(F)F)nc12 [Example 53] |
| 24 nM | CC(C)(CNC(=O)c1ccc2[nH]c(=O)sc2c1)NCC(=O)N1CCC[C@H]1C#N [Example 55] |
| 30 nM | Cn1cnc2cc(C(=O)NCC(C)(C)NCC(=O)N3CCC[C@H]3C#N)ccc21 [Example 56] |
| 35 nM | Cc1nc2ccc(C(=O)NCC(C)(C)NCC(=O)N3CCC[C@H]3C#N)cc2o1 [Example 57] |
| 50 nM | CC(C)(CNC(=O)C1Cc2ccccc2C1)NCC(=O)N1CCC[C@H]1C#N [Example 59] |
| 18 nM | CC(C)(CC(=O)N1Cc2ccc(F)cc2C1)NCC(=O)N1CCC[C@H]1C#N [Example 63] |
| 24 nM | CC(C)(CC(=O)N1Cc2ccc(Br)cc2C1)NCC(=O)N1CCC[C@H]1C#N [Example 64] |
| 11 nM | CC(C)(CC(=O)N1Cc2ccc(Cl)cc2C1)NCC(=O)N1CCC[C@H]1C#N [Example 65] |
| 50 nM | CC(C)(CC(=O)N1Cc2ccc(C(C)(C)C)cc2C1)NCC(=O)N1CCC[C@H]1C#N [Example 66] |
| 7 nM | CC(C)(CC(=O)N1Cc2cccc(F)c2C1)NCC(=O)N1CCC[C@H]1C#N [Example 67] |
| 16 nM | Cc1cccc2c1CN(C(=O)CC(C)(C)NCC(=O)N1CCC[C@H]1C#N)C2 [Example 68] |
| 21 nM | CC(C)(CC(=O)N1Cc2c(Cl)ccc(Cl)c2C1)NCC(=O)N1CCC[C@H]1C#N [Example 69] |
| 32 nM | CC(C)(CC(=O)N1Cc2cccc(O)c2C1)NCC(=O)N1CCC[C@H]1C#N [Example 70] |
| 2 nM | CC(C)(CC(=O)N1Cc2ccc(CO)cc2C1)NCC(=O)N1CCC[C@H]1C#N [Example 71] |
| 39 nM | CC(C)(CC(=O)N1Cc2ccc(C(F)(F)F)cc2C1)NCC(=O)N1CCC[C@H]1C#N [Example 72] |
| 94 nM | CC(C)(CC(=O)N1Cc2c(Cl)c(Cl)c(Cl)c(Cl)c2C1)NCC(=O)N1CCC[C@H]1C#N [Example 73] |
| 44 nM | CC(C)(CC(=O)N1Cc2cc(Cl)c(Cl)cc2C1)NCC(=O)N1CCC[C@H]1C#N [Example 74] |
| 14 nM | Cc1cc(O)c2c(c1)CN(C(=O)CC(C)(C)NCC(=O)N1CCC[C@H]1C#N)C2 [Example 75] |
